According to ChEMBL document CHEMBL1201862, “PubChem BioAssay data set” (2004):
Counter-ions that a name gives are not always drawn. Active and inactive are the calls of the source.

Key:
[1] = system: Streptococcus sp. 'group A'; assay: Streptococcus pyogenes SK(-)GAS viability under kanamycin – luminescence, BacTiterGlo, confirmation, counter-screen for streptokinase expression inhibitor project, dose response (AID 1900); format: functional, organism-based
Beta-galactosidase = Beta-galactosidase (Escherichia coli, UniProt Q8VNN2); assay: PubChem AID 485352; format: functional
Beta-galactosidase, sequence (Q8VNN2 whole entry): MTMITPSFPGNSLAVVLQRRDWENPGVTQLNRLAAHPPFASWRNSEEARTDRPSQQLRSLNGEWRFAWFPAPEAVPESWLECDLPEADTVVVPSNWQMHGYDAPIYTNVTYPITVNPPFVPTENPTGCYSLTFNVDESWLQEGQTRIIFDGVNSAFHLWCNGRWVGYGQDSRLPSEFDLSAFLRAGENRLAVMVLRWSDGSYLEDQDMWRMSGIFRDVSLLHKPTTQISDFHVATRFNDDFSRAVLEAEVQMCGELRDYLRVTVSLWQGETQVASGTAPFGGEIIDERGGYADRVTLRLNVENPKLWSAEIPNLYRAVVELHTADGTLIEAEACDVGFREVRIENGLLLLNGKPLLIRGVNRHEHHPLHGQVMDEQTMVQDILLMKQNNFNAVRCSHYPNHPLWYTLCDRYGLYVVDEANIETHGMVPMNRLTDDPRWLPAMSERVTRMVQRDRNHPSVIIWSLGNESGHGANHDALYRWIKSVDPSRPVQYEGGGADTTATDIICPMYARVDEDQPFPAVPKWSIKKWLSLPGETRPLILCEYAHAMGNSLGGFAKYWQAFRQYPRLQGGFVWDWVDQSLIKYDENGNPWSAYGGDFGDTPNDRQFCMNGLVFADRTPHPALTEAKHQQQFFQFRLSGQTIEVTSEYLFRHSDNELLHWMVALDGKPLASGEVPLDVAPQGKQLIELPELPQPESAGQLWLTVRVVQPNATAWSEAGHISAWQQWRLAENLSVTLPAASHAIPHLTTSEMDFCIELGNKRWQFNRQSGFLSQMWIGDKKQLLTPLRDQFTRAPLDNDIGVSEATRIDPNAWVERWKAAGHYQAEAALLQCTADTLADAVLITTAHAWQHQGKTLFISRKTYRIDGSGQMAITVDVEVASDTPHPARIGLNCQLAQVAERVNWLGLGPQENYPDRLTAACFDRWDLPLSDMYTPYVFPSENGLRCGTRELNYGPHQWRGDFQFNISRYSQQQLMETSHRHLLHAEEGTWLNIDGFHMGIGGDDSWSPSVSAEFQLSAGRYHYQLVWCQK

[2] = Trypanosoma cruzi growth suppression in host cells – NIH3T3 host cells, beta-gal luminescence, confirmation (AID 2044); format: functional, cell-based;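 further: intracellular parasites grown in NIH/3T3 mouse fibroblasts as host cells; luminescent beta-galactosidase reporter signal from transgenic T. cruzi replicating inside host cells; inhibitors lower the luminescence signal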
[3] = target: Type-1 angiotensin II receptor (Homo sapiens, UniProt P30556); assay: antagonism of angiotensin II type 1 receptor – cell-based, uHTS hits, selectivity assay for APJ receptor antagonist project, dose response (AID 463214); format: functional;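 further: antagonist potency against angiotensin II stimulated AT1 response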
Type-1 angiotensin II receptor, sequence (P30556 whole entry): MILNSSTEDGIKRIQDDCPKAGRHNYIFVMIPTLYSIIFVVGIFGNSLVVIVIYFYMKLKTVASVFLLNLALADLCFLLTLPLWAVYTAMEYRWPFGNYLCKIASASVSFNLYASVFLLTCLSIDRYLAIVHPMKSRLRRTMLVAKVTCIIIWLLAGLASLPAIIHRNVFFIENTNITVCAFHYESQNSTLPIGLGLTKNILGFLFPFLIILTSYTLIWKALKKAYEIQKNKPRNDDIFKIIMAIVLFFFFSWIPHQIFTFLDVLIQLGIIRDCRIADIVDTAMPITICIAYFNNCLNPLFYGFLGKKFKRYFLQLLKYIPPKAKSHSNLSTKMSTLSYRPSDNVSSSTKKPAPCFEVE

[4] = NIH3T3 cell viability loss – ATP luminescence, mouse fibroblasts, counter-screen, dose response (AID 2010); format: functional, cell-based;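 further: cells exposed to compound for about 90 hours before reading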
Streptococcus = assay: GAS UMAA2166 growth inhibition – luminescence, BacTiterGlo, counter-screen for streptokinase expression inhibitor project, dose response (AID 1915); format: functional, organism-based;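 further: potency for reduction of bacterial viability or growth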
INS1 = assay: INS-1E survival protection against cytokine death – cell-based, luminescence, retest, dose response (AID 449756); format: functional; settings: Rattus norvegicus;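 further: cell death triggered by IL-1 beta plus TNF-alpha plus IFN-gamma mixture; protective hits raise ATP signal compared with cytokine alone wells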
[5] = target: T1, DNA repair and recombination protein RAD54-like (Homo sapiens, UniProt Q92698); assay: RAD54 Holliday junction migration blockers – biochemical, fluorescence, cherry-picked samples, dose series, confirmation (AID 651657); format: functional
T1 sequence (Q92698 whole entry): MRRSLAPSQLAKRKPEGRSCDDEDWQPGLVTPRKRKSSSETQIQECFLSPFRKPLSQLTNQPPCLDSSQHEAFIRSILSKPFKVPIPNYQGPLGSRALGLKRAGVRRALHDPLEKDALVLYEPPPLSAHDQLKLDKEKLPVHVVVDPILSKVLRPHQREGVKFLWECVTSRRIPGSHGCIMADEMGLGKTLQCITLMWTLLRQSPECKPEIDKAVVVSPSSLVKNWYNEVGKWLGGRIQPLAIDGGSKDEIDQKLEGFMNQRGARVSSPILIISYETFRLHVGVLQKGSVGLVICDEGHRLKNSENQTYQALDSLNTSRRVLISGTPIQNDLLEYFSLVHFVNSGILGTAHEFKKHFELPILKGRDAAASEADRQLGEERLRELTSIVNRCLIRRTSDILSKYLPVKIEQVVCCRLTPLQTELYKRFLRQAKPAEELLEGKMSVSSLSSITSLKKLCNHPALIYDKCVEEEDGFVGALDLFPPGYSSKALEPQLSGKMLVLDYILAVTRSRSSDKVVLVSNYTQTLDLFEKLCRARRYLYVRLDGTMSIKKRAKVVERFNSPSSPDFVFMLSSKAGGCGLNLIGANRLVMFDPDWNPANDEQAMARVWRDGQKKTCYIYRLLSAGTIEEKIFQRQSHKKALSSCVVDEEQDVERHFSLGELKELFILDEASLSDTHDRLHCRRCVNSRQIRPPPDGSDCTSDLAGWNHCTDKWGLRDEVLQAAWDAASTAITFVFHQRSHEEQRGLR

HEK293 = assay: cells; format: functional, cell-based; settings: Homo sapiens
[6] = target: T2, Nuclear receptor subfamily 0 group B member 1 (Homo sapiens, UniProt P51843); assay: Luminescence-based cell-based high throughput dose response assay for inhibitors of the orphan nuclear receptor subfamily 0, group B, member 1 (DAX1; NR0B1). [Related pubchem assays (depositor defined):AID504766, AID504790]; format: functional
T2 sequence (P51843 whole entry): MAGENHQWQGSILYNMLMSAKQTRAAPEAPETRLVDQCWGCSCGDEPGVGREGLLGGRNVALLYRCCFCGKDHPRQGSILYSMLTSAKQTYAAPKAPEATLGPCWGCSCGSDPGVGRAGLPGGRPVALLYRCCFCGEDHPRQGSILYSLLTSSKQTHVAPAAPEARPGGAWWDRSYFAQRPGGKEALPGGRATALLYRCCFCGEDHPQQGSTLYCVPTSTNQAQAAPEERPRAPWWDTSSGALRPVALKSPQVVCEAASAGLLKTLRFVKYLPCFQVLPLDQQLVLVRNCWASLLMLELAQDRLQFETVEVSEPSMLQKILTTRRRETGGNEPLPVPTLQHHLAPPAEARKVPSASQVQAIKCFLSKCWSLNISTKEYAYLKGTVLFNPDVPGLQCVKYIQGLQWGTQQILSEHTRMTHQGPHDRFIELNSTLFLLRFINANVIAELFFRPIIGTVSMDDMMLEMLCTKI

Cysteine protease ATG4B = Cysteine protease ATG4B (Homo sapiens, UniProt Q9Y4P1); format: functional;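 further: Fluorescence-based dose-response confirmation assay measuring inhibition of ATG4B activity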
Cysteine protease ATG4B, sequence (Q9Y4P1 whole entry): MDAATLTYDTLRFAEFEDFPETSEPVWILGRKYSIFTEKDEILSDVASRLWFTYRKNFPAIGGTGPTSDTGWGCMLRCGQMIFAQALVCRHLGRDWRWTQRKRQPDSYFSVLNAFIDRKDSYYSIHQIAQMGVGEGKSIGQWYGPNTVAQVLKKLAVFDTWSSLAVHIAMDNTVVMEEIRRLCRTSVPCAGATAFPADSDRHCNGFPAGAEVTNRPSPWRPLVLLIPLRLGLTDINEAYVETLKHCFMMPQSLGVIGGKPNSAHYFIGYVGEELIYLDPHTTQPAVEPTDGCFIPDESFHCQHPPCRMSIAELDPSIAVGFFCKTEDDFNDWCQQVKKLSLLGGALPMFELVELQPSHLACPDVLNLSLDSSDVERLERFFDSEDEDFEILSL

Phospholipase A2 = Phospholipase A2 (Homo sapiens, UniProt P04054); format: functional;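 further: confirmatory dose-response counterscreen on phospholipase A2, testing hits that came from an ultra-high-throughput screen for ATG4B inhibitors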
Phospholipase A2, sequence (P04054 whole entry): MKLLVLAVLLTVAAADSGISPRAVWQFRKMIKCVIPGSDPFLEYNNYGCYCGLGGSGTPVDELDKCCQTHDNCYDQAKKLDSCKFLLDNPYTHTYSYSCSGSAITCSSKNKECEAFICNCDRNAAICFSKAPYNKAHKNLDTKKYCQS

cells [7] = format: functional, cell-based
cells [8] = format: functional, cell-based; remark: listed apart in the source
[9] = target: T3, Microphthalmia-associated transcription factor (Homo sapiens, UniProt O75030); assay: reducers of TRPM1 reporter luminescence, concentration series – cell-based, SK-MEL-5, cherry-picked, set 3, MITF inhibitor project, dose response (AID 493073); format: functional;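 further: SK-MEL-5 melanoma cells with luciferase driven by the MITF target TRPM1 promoter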
T3 sequence (O75030 whole entry): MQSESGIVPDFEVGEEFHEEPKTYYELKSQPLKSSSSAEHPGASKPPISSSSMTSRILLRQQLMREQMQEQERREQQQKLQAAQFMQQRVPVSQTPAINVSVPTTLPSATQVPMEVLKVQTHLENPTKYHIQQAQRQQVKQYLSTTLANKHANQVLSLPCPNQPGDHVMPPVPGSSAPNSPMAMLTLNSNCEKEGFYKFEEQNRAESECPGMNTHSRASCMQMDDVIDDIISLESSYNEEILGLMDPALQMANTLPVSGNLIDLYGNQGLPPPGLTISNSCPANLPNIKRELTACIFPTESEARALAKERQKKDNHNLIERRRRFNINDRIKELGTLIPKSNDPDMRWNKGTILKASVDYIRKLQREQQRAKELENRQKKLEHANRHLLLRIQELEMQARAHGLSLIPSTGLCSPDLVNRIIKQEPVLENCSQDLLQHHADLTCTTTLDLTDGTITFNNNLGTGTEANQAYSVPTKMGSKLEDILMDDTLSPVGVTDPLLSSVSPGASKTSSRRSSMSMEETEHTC

[10] = target: Voltage-gated inwardly rectifying potassium channel KCNH2 (Homo sapiens, UniProt Q12809); settings: Potency;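 further: confirmatory quantitative high-throughput screen measuring inhibition of hERG channel activity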
Voltage-gated inwardly rectifying potassium channel KCNH2, sequence (Q12809 whole entry): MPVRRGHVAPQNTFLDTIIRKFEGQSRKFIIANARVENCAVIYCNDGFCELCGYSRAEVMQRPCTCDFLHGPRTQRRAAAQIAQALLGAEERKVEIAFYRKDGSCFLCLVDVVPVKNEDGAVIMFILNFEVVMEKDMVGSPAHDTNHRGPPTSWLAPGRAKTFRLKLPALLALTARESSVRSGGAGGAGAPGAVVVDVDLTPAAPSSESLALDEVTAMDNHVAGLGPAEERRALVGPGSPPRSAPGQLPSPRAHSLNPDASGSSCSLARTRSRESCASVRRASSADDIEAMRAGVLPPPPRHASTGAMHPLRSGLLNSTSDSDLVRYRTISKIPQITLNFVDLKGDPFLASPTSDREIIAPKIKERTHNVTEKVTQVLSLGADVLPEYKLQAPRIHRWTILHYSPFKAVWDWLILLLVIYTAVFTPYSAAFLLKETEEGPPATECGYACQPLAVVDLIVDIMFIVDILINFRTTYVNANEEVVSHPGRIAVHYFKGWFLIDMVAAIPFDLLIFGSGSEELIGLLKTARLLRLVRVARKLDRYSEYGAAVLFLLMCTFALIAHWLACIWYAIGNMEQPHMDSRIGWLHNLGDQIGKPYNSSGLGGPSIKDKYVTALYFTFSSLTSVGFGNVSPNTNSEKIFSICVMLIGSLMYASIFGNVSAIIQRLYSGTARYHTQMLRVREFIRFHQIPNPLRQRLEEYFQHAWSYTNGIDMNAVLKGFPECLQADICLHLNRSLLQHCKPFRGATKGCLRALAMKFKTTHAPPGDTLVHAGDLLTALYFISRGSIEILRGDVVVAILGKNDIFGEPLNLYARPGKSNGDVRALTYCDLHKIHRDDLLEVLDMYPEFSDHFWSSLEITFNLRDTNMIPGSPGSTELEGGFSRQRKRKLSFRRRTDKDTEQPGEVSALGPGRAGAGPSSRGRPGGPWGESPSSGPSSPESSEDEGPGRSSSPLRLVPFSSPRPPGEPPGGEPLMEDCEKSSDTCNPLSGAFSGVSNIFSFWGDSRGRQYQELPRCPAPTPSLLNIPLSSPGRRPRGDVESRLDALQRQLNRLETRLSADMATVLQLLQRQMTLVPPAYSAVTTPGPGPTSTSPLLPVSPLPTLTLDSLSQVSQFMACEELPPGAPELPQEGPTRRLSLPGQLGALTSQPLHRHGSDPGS

[11] = NIH-3T3 fibroblast cytotoxicity, dose response, cytotoxicity control, cell-based, fluorescence, Alamar Blue, secondary assay (AID 2327); format: functional;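 further: NIH-3T3 mouse fibroblasts cultured with fluconazole at 8 µg/mL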
[12] = fluconazole-exposed Candida albicans growth modulators – fluorescence, retest, confirmation (AID 2467); format: functional, cell-based
[13] = Luminescence Cell-Based Dose Retest to Confirm Inhibitors of Cancer Stem Cells. [Related pubchem assays (depositor defined):AID2717, AID2721]; format: functional; settings: Homo sapiens

CCCN(CCC)c1nc(-c2ccccn2)nc2ccccc12
EC50 [1]: 1.02 µM (active) | EC50 (Beta-galactosidase): > 40 µM (inactive) | EC50 [2]: 374 nM (active) | IC50 [3]: 23.9 µM (not active) | EC50 [4]: 1.76 µM (active) | EC50 (Streptococcus): 1.85 µM (active) | AC50 (INS1): 1.77 µM (active) | AC50 [5]: 13.3 µM (active)

O=C(Nc1nc(-c2ccccc2)ns1)c1ccncc1
IC50 (HEK293): > 67.5 µM (inactive) | IC50 [6]: > 67.5 µM (inactive)

CC(C)(C)n1ncc2c(=O)n(Cc3ccccc3Br)cnc21
IC50 (Cysteine protease ATG4B): 10.8 µM (active) | IC50 (Phospholipase A2): 7.12 µM (active)

COc1cc(C(=O)N/N=C(\c2ccccc2)c2ccccn2)cc(OC)c1OC
EC50 (cells [7]): 10.3 µM (active) | EC50 (Beta-galactosidase): > 40 µM (inactive) | EC50 [2]: 473 nM (active) | IC50 [3]: > 40 µM (not active) | EC50 (cells [8]): > 350 µM (not active) | EC50 [4]: 0.75 µM (active) | AC50 [9]: 13.8 µM (active) | AC50 (INS1): 0.499 µM (active)

CNCCCC1c2ccccc2C=Cc2ccccc21 [PROTRIPTYLINE HYDROCHLORIDE]
AC50 [10]: 31.6 µM (inconclusive)

Cc1cc(C(=O)NNc2ccc(F)cc2F)no1
EC50 [11]: 2.93 µM (active) | EC50 [12]: > 38 µM (not active) | AC50 [13]: 1.1 µM (active) | IC50 (HEK293): > 67.5 µM (inactive) | IC50 [6]: > 67.5 µM (inactive)
